# Patent publication US4861774A, “Method of treating tumors using tetracyclo compounds” (priority 1984, dated 1989)
# Assays:
# Human LX-1 lung = Human LX-1 lung tumor in nude mice (Test 9); type: in vivo, human (in BALB/c nu/nu mice); settings: 18.0 mg/kg i.v., days 12, 16 & 20; evaluation day 28
# Experimental: (§1) Human LX-1 lung or MX-1 mammary (each fragment, 2×2×2 mm), maintained s.c. by serial passage in male BALB/c nu/nu mice, was implanted s.c. to male BALB/c nu/nu mice on day 0, and the test compounds or vehicle were given i.v. to the mice once a day on specified days in Table 9.
# (§2) Tumor weight was calculated as follows: (Tumor length and width were measured by caliper.)
# (§3) Tumor weight (mg)=1/2×a×b^2, where a represents length and b represents width (mm).
# (§4) Tumor weights (initial) and (last) were calculated on the first injection day (just before dosing) and on day 21, 27 or 28 (the last evaluation day), respectively.
# (§5) Five mice were used for each test group and 5 or 10 mice were used for each vehicle-treated control group.
# (§6) Drug efficacy was expressed as percentage of mean tumor weight of the test group to that of the control group. [formula]
# L1210 Leukemia = L1210 Leukemia ascitic tumor in mice (Test 5); type: in vivo, mice (BDF1 or CDF1); settings: 10.0 mg/kg i.p., days 1-9, BDF1 mice
# Source text: L1210 Leukemia (1×10^5 cells), maintained i.p. by serial passage in female DBA/2 mice, was implanted i.p. to female BDF1 or CDF1 mice on day 0, and the test compounds or vehicle were given i.p. to the mice once a day on days 1-9.
# Ten mice were used for each test group, and twenty mice were used for each vehicle-treated control group.
# Drug efficacy against the ascitic tumors is expressed as percentage of the median (mean) survival time of the test group to that of the control group. [formula] .circle.2 Results
# Human MX-1 mammary = Human MX-1 mammary tumor in nude mice (Test 9); type: in vivo, human (in BALB/c nu/nu mice); settings: 10.0 mg/kg i.v., days 11, 15 & 19; evaluation day 27
# Experimental: as §1, §2, §3, §4, §5, §6
# [1] = system: Bacillus subtilis ATCC 6633; test: Antimicrobial activity, serial broth dilution (Test 2), Bacillus subtilis; type: cell-based; settings: ATCC6633, overnight incubation at 37° C.
# Experimental: Antimicrobial activity of the FR-900482 substance against some bacteria was determined by a serial broth dilution method in bouillon media for bacteria. Minimum inhibitory concentrations (MIC) were expressed in terms of μg/ml after overnight incubation at 37° C.
compound,measurement,setting,value
"NC(=O)OCC1c2c(O)cc(C=O)cc2N2CC3NC3C1(O)O2 (stereo not drawn) [FR-900482 substance, 4-Formyl-6,9-dihydroxy-14-oxa-1,11-diazatetracyclo[7.4.1.0^2,7.0^10,12]tetradeca-2,4,6-trien-8-ylmethyl carbamate]","1-T""/C""",Human LX-1 lung,97%
same,T/C,L1210 Leukemia,> 190%
same,Solubility,Solubility; acetone,Insoluble
same,Solubility,Solubility; chloroform,Insoluble
same,Solubility,Solubility; ethyl acetate,Insoluble
same,Solubility,Solubility; methanol,Soluble
same,Solubility,Solubility; water,Soluble
same,"1-T""/C""",Human MX-1 mammary,100%
same,MIC,[1],50 µg/mL
